Holding throughout (type): binding
For assay [1], the target named is T1, PCSK9 (Homo sapiens, UniProt Q8NBP7).
T1 construct: biotin (biotinylated); purchased
Briefly: PCSK9 Alexa FRET Standard TR-FRET assay. Particulars: Ki calculated from IC50 and KD of AF cyclic peptide Reagent A; 0.5 nM PCSK9, 20 nM AF cyclic peptide; read-out: Alexa FRET Stdt TR-FRET. The procedure:
A solution containing 1 nM biotinylated PCSK9+2.5 nM Lance Streptavidin Europium (Strep-Eu) is made in 50 mM HEPES pH 7.4, 0.15 M NaCl, 5 mM CaCl2, 0.01% BSA, and 0.01% Surfactant P20. A separate solution containing 40 nM of the AlexaFluor tagged cyclic peptide is made in the same buffer system. An Echo is used to transfer 0.750 ul of compound to an assay plate followed by the addition of 15 ul of PCSK9+Stept-Eu and 15 ul of AF peptide. The final assay volume is 30.750 ul containing 0.5 nM PCSK9, 1.25 nM Strep-Eu, and 20 nM AF cyclic peptide. The reaction is incubated at room temperature for at least two hours prior to fluorescence measurements using an Envision Multilabel Reader. IC50 values are determined by fitting data to a sigmoidal dose-response curve using nonlinear regression. Ki is then calculated from the Ic50 and the KD of AF cyclic peptide. Counts (B-counts) of the europium-labeled PCSK9 are followed to observe if compounds are adversely PCSK9. A fall off of the B-counts likely indicates a false positive of inhibition. Data from this procedure is reported as “A=‘numerical value’ (nanomolar)”

The target of assay [2] is T1, PCSK9. Briefly: PCSK9 Alexa FRET Plus TR-FRET assay. The method, then:
A separate solution containing 1920 nM of the AlexaFluor tagged cyclic peptide is made in the same buffer system. […] The reaction is incubated at room temperature for at least two hours prior to fluorescence measurements using an Envision Multilabel Reader. IC50 values are determined by fitting data to a sigmoidal dose-response curve using nonlinear regression. Ki is then calculated from the Ic50 and the KD of AF cyclic peptide. Counts (B-counts) of the europium-labeled PCSK9 are followed to observe if compounds are adversely affecting PCSK9. A fall off of the B-counts is likely indicates a false positive of inhibition. Data from this procedure is reported as “P=‘numerical value’ (nanomolar)”
(In TR-FRET formats the signal depends on donor and acceptor labels being close together.)

The target of assay [3] is T1, PCSK9. Briefly: PCSK9 Alexa FRET Ultra TR-FRET assay. The procedure:
A separate solution containing 1920 nM of the AlexaFluor tagged cyclic peptide is made in the same buffer system. […] The reaction is incubated at room temperature for at least two hours prior to fluorescence measurements using an Envision Multilabel Reader. IC50 values are determined by fitting data to a sigmoidal dose-response curve using nonlinear regression. Ki is then calculated from the Ic50 and the KD of AF cyclic peptide. Counts (B-counts) of the europium-labeled PCSK9 are followed to observe if compounds are adversely affecting PCSK9. A fall off of the B-counts is likely indicates a false positive of inhibition. Data from this procedure is reported as “Ki Ultra=‘numerical value’ (data reported is nanomolar)”

[4] abbreviates: Ki calculated from IC50 and KD of AF cyclic peptide Reagent B, 0.5 nM PCSK9, 960 nM AF cyclic peptide, read-out: Alexa FRET Plus TR-FRET.
[5] abbreviates: Ki Ultra, calculated from IC50 and KD of AF cyclic peptide, 0.5 nM PCSK9, 960 nM AF cyclic peptide, read-out: Alexa FRET Ultra TR-FRET.

This passage reports Ki results from patent US12178842B2, “PCSK9 antagonist compounds” (MERCK SHARP & DOHME LLC, priority 2019, dated 2024).

Structures are written as SMILES. Where only a bound is given, the exact number is not on record here.

T1 sequence (Q8NBP7 153-692): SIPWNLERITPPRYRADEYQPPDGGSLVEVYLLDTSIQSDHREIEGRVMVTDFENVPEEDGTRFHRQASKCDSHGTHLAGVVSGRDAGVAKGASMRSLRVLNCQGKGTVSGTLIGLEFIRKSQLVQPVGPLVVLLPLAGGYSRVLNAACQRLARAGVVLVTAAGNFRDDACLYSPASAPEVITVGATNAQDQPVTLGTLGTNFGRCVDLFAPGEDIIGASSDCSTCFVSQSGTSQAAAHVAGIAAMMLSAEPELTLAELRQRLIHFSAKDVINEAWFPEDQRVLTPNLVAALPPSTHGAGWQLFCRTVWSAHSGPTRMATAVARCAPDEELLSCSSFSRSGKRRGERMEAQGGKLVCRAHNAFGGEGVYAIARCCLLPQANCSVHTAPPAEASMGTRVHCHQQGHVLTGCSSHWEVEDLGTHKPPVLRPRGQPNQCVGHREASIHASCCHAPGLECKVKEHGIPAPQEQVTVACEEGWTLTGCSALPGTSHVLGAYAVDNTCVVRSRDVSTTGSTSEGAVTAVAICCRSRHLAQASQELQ

With `COc1ccc(C[C@@H]2NC(=O)[C@H]([C@@H](C)O)NC(=O)[C@@H]3[C@@H]4CCN3C(=O)[C@@H]3Cc5cn(c6ccc(F)cc56)CCCCCCN(Cc5ccc(cc5)CCNC(=O)[C@]5(C)CCCN5C2=O)C(=O)CCC(=O)N[C@@H](C)C(=O)N[C@H](CNC(=O)COCCOCCNC(=O)COCCOCCNC(=O)CC[C@H](NC(=O)CCCCCCCCCCCCCCCCC(=O)O)C(=O)O)C(=O)N[C@@H](Cc2cccc(c2)CNC(=O)CO4)C(=O)N3)cc1` [Ex-18], the figures for the Ki at PCSK9 [1], on PCSK9 [2] (setting [4]) and on PCSK9 [3] (setting [5]) were less than 1.26 nM, 0.023 nM and 0.021 nM, respectively.
Regarding `CCCCCCC(=O)NCCCCCCCC(=O)N[C@@H](CCC(=O)NCCOCCOCC(=O)NCCOCCOCC(=O)NCC[N+](C)(C)CCCCCC(=O)NC[C@H]1NC(=O)[C@H](C)NC(=O)CCC(=O)N2CCCCCCn3cc(c4cc(F)ccc43)C[C@@H]3NC(=O)[C@H](Cc4cccc(c4)CNC(=O)CO[C@H]4CCN(C3=O)[C@@H]4C(=O)N[C@@H]([C@@H](C)O)C(=O)N[C@@H](Cc3ccc(OC)cc3)C(=O)N3CCC[C@@]3(C)C(=O)NCCc3ccc(cc3)C2)NC1=O)C(=O)O` [Ex-19], the Ki was less than 1.26 nM on PCSK9 [1], less than 0.006 nM on PCSK9 [2] (setting [4]) and 0.001 nM at PCSK9 [3] (setting [5]).
Taken in the same sequence, the figures for `CCCCCCC(=O)NCCCCCCCC(=O)NCC[N+](C)(C)CCOCCOCCC(=O)NC[C@H]1NC(=O)[C@H](C)NC(=O)CCC(=O)N2CCCCCCn3cc(c4cc(F)ccc43)C[C@@H]3NC(=O)[C@H](Cc4cccc(c4)CNC(=O)CO[C@H]4CCN(C3=O)[C@@H]4C(=O)N[C@@H]([C@@H](C)O)C(=O)N[C@@H](Cc3ccc(OC)cc3)C(=O)N3CCC[C@@]3(C)C(=O)NCCc3ccc(cc3)C2)NC1=O` [Ex-20] were less than 1.26 nM, less than 0.006 nM and 0.001 nM.
Consider `CCCCCC/C=C\CCCCCCCC(=O)N[C@@H](CCC(=O)NCCOCCOCC(=O)NCCOCCOCC(=O)NCC[N+](C)(C)CCCCCC(=O)NC[C@H]1NC(=O)[C@H](C)NC(=O)CCC(=O)N2CCCCCCn3cc(c4cc(F)ccc43)C[C@@H]3NC(=O)[C@H](Cc4cccc(c4)CNC(=O)CO[C@H]4CCN(C3=O)[C@@H]4C(=O)N[C@@H]([C@@H](C)O)C(=O)N[C@@H](Cc3ccc(OC)cc3)C(=O)N3CCC[C@@]3(C)C(=O)NCCc3ccc(cc3)C2)NC1=O)C(=O)O` [Ex-21], for which the Ki at PCSK9 [1] is less than 1.26 nM; on PCSK9 [2] (setting [4]), 0.01 nM; at PCSK9 [3] (setting [5]) it was 0.001 nM.
The corresponding values for `COc1ccc(C[C@@H]2NC(=O)[C@H]([C@@H](C)O)NC(=O)[C@@H]3[C@@H]4CCN3C(=O)[C@@H]3Cc5cn(c6ccc(F)cc56)CCCCCCN(Cc5ccc(cc5)CCNC(=O)[C@]5(C)CCCN5C2=O)C(=O)CCC(=O)N[C@@H](C)C(=O)N[C@H](CNC(=O)CCOCCOCC[N+](C)(C)CCNC(=O)COCCOCCNC(=O)COCCOCCNC(=O)CC[C@H](NC(=O)CCCCCCCCCCCCCCCCC(=O)O)C(=O)O)C(=O)N[C@@H](Cc2cccc(c2)CNC(=O)CO4)C(=O)N3)cc1` [Ex-22] are less than 1.26 nM, 0.015 nM and 0.004 nM.
Consider `COc1ccc(C[C@@H]2NC(=O)[C@H]([C@@H](C)O)NC(=O)[C@@H]3[C@@H]4CCN3C(=O)[C@@H]3Cc5cn(c6ccc(F)cc56)CCCCCCN(Cc5ccc(cc5)CCNC(=O)[C@]5(C)CCCN5C2=O)C(=O)CCC(=O)N[C@@H](C)C(=O)N[C@H](CNC(=O)CCOCCOCC[N+](C)(C)CCNC(=O)CCCCCCCCCCCCCCCCC(=O)O)C(=O)N[C@@H](Cc2cccc(c2)CNC(=O)CO4)C(=O)N3)cc1` [Ex-23], for which the Ki on PCSK9 [1] is less than 1.26 nM; on PCSK9 [2] (setting [4]) it was less than 0.006 nM; at PCSK9 [3] (setting [5]), 0.007 nM.
Taken in the same sequence, the figures for `COc1ccc(C[C@@H]2NC(=O)[C@H]([C@@H](C)O)NC(=O)[C@@H]3[C@@H]4CCN3C(=O)[C@@H]3Cc5cn(c6ccc(F)cc56)CCCCCCN(Cc5ccc(cc5)CCNC(=O)[C@]5(C)CCCN5C2=O)C(=O)CCC(=O)N[C@@H](C)C(=O)N[C@H](CNC(=O)CCOCCOCCNC(=O)CCCCCCCCCCCCCCCCC(=O)O)C(=O)N[C@@H](Cc2cccc(c2)CNC(=O)CO4)C(=O)N3)cc1` [Ex-24] were less than 1.26 nM, 0.009 nM and 0.018 nM.
Taken in the same sequence, the figures for `COc1ccc(C[C@@H]2NC(=O)[C@H]([C@@H](C)O)NC(=O)[C@@H]3[C@@H]4CCN3C(=O)[C@@H]3Cc5cn(c6ccc(F)cc56)C/C=C/CCCN(Cc5ccc(cc5)CCNC(=O)[C@]5(C)CCCN5C2=O)C(=O)CCC(=O)N[C@@H](C)C(=O)N[C@H](CNC(=O)CCCCC[N+](C)(C)CCNC(=O)COCCOCCNC(=O)COCCOCCNC(=O)CC[C@H](NC(=O)CCCCCCCCCCCCCCCCC(=O)O)C(=O)O)C(=O)N[C@@H](Cc2cccc(c2)CNC(=O)CO4)C(=O)N3)cc1` [Ex-25] were less than 1.26 nM, 0.006 nM and 0.009 nM.
Turning to `COc1ccc(C[C@@H]2NC(=O)[C@H]([C@@H](C)O)NC(=O)[C@@H]3[C@@H]4CCN3C(=O)[C@@H]3Cc5cn(c6ccc(F)cc56)CCCCCCN(Cc5ccc(cc5)CCNC(=O)[C@]5(C)CCCN5C2=O)C(=O)CCC(=O)N[C@@H](C)C(=O)N[C@H](CNC(=O)CCCCC[N+](C)(C)CCNC(=O)CCCCC[N+](C)(C)CCNC(=O)COCCOCCNC(=O)COCCOCCNC(=O)CC[C@H](NC(=O)CCCCCCCCCCCCCCCCC(=O)O)C(=O)O)C(=O)N[C@@H](Cc2cccc(c2)CNC(=O)CO4)C(=O)N3)cc1` [Ex-26], the Ki at PCSK9 [1] was less than 1.26 nM; at PCSK9 [2] (setting [4]) it was 0.006 nM; at PCSK9 [3] (setting [5]), 0.008 nM.
Regarding `COc1ccc(C[C@@H]2NC(=O)[C@H]([C@@H](C)O)NC(=O)[C@@H]3[C@@H]4CCN3C(=O)[C@@H]3Cc5cn(c6ccc(F)cc56)CCCCCCN(Cc5ccc(cc5)CCNC(=O)[C@]5(C)CCCN5C2=O)C(=O)CCC(=O)N[C@@H](C)C(=O)N[C@H](CNC(=O)CCCCC[N+](C)(C)CCNC(=O)COCCOCCNC(=O)COCCOCCNC(=O)CC[C@H](NC(=O)CCCCCCCCCCCCCCCCCCC(=O)O)C(=O)O)C(=O)N[C@@H](Cc2cccc(c2)CNC(=O)CO4)C(=O)N3)cc1` [Ex-27], the figures for the Ki at PCSK9 [1], on PCSK9 [2] and on PCSK9 [3] were less than 1.26 nM, 0.014 nM and 0.006 nM, respectively.
For `COc1ccc(C[C@@H]2NC(=O)[C@H]([C@@H](C)O)NC(=O)[C@@H]3[C@@H]4CCN3C(=O)[C@@H]3Cc5cn(c6ccc(F)cc56)CCCCCCN(Cc5ccc(cc5)CCNC(=O)[C@]5(C)CCCN5C2=O)C(=O)CCC(=O)N[C@@H](C)C(=O)N[C@H](CNC(=O)COCCOCCOCCOCCNC(=O)CCCCC[N+](C)(C)CCNC(=O)COCCOCCNC(=O)COCCOCCNC(=O)CC[C@@H](NC(=O)CCCCCCCCCCCCCCCCC(=O)O)C(=O)O)C(=O)N[C@@H](Cc2cccc(c2)CNC(=O)CO4)C(=O)N3)cc1` [Ex-28], the figures for the Ki on PCSK9 [1], on PCSK9 [2] (setting [4]) and at PCSK9 [3] (setting [5]) were less than 1.26 nM, 0.013 nM and 0.01 nM, respectively.
Consider `COc1ccc(C[C@@H]2NC(=O)[C@H]([C@@H](C)O)NC(=O)[C@@H]3[C@@H]4CCN3C(=O)[C@@H]3Cc5cn(c6ccc(F)cc56)CCCCCCN(Cc5ccc(cc5)CCNC(=O)[C@]5(C)CCCN5C2=O)C(=O)CCC(=O)N[C@@H](C)C(=O)N[C@H](CNC(=O)COCCOCCNC(=O)COCCOCCNC(=O)CCOCCOCC[N+](C)(C)CCNC(=O)COCCOCCNC(=O)COCCOCCNC(=O)CC[C@H](NC(=O)CCCCCCCCCCCCCCCCC(=O)O)C(=O)O)C(=O)N[C@@H](Cc2cccc(c2)CNC(=O)CO4)C(=O)N3)cc1` [Ex-29], for which the Ki on PCSK9 [1] is less than 1.26 nM; at PCSK9 [2] (setting [4]) it was 0.011 nM; at PCSK9 [3] (setting [5]), 0.013 nM.
